Test results taken from publication PMC9959269, “Pyrrolyl and Indolyl α-γ-Diketo Acid Derivatives Acting as Selective Inhibitors of Human Carbonic Anhydrases IX and XII” (Pharmaceuticals, 2023).
Where “and” joins values, the source holds several entries; their conditions need not be identical. Equal entries are not always repeated.

Assays:
hCA I = biological target: T1, hCA I (Homo sapiens, UniProt P00915); assay: Stopped flow CO2 hydrase assay, hCA I inhibition; format: biochemical; conditions: stopped flow technique, means ± SEM of 3 different assays, recombinant hCA I; for Ki: read-out: Ki CA I
T1 construct: made in house
T1 sequence (P00915 whole entry): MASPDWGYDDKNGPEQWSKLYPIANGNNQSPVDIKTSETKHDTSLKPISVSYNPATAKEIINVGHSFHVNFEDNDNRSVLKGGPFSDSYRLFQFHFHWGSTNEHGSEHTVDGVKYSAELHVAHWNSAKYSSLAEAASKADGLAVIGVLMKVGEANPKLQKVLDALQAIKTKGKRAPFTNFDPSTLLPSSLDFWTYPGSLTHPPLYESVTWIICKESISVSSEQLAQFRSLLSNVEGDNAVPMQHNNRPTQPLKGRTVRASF
Procedure: (§1) An Applied Photophysics stopped-flow instrument has been used for assaying the CA catalyzed CO2 hydration activity. Phenol red (at a concentration of 0.2 mM) has been used as an indicator, working at the absorbance maximum of 557 nm, with 20 mM Hepes (pH 7.5) as buffer and 20 mM Na2SO4 (for maintaining constant the ionic strength), following the initial rates of the CA-catalyzed CO2 hydration reaction for a period of 10−100 s. The CO2 concentrations ranged from 1.7 to 17 mM for the determination of the kinetic parameters and inhibition constants. […] The uncatalyzed rates were determined in the same manner and subtracted from the total observed rates. Stock solutions of inhibitor (0.1 mM) were prepared in distilled−deionized water and dilutions up to 0.01 nM were performed thereafter with the assay buffer. Inhibitor and enzyme solutions were preincubated together for 15 min at room temperature before assay to allow for the formation of the E−I complex. The inhibition constants were obtained by nonlinear least-squares methods using PRISM 3 and the Cheng−Prusoff equation, as reported earlier, and they represent the mean from at least three different determinations. […] All hCA isoforms were recombinant ones obtained in-house as reported earlier.

hCA II = biological target: T2, hCA II (Homo sapiens, UniProt P00918); assay: Stopped flow CO2 hydrase assay, hCA II inhibition; format: biochemical; conditions: stopped flow technique; means ± SEM of 3 different assays; recombinant hCA II; read-out: Ki CA II
T2 construct: made in house
Procedure: as §1

hCA XII = biological target: T3, hCA XII (Homo sapiens, UniProt O43570); assay: Stopped flow CO2 hydrase assay, hCA XII inhibition; format: biochemical; conditions: for Ki: stopped flow technique, means ± SEM of 3 different assays, recombinant hCA XII, read-out: Ki CA XII
T3 construct: made in house
T3 sequence (O43570 25-354): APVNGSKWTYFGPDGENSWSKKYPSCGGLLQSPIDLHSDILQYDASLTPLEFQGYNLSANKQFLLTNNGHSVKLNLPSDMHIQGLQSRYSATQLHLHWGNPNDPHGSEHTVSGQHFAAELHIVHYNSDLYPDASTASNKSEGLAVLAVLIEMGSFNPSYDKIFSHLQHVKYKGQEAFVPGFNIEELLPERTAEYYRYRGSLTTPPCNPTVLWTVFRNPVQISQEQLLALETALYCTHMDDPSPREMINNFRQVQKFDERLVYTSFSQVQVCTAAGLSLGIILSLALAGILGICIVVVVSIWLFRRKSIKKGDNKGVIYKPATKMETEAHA
Procedure: as §1

hCA IX = biological target: T4, hCA IX (Homo sapiens, UniProt Q16790); assay: Stopped flow CO2 hydrase assay, hCA IX inhibition; format: biochemical; conditions: for Ki: stopped flow technique, means ± SEM of 3 different assays, recombinant hCA IX, read-out: Ki CA IX
T4 construct: made in house
Procedure: as §1

[1] = test system: MDA-MB231, HT-29, SCC-15 and FaDu tumor cell lines; assay: In vitro proliferation assay, four tumor cell lines taken together; format: cell-based, human; conditions: for Lowest concentration determining a significant decrease in alive cells: tumor cell lines, 24 h
Procedure: (§2) The effects of selected compounds were also examined on the proliferation of four cell lines from different human solid tumors overexpressing hCA isoforms IX and XII: triple negative breast cancer MDA-MB231, colon carcinoma HT-29, tongue squamous carcinoma SCC-15 and pharynx squamous carcinoma FaDu. The cell lines were treated with 5, 10, 20, 50, 100 µM of each single compound for 24 and 48 h. In parallel, the proliferation assay was performed also on HaCaT, a human non-transformed keratinocyte cell line, with each compound used at the same concentrations and times already indicated. The median values from three different proliferation assays for each compound and for each cell line were calculated and their significance was evaluated.
(§3) The following human tumor cell lines were utilized in the present study: triple-negative breast cancer MDA-MB231, colon carcinoma HT-29, tongue squamous cell carcinoma SCC-15 and pharynx squamous cell carcinoma FaDu. In addition, a spontaneously transformed keratinocyte cell line from human skin HaCaT was used as control of non-transformed cells. All cell lines were purchased from the American Type Culture Collection (Manassas, VA, USA).
(§4) The cell lines were grown in RPMI 1640 medium supplemented with 10% fetal calf serum (FCS), 2 mM glutamine and 50 U/mL penicillin–streptomycin.
(§5) All compounds were solubilized in dimethylsulfoxide (DMSO) (Sigma) for a 10 mM stock solution and utilized to final concentrations from 5 to 100 μM for 24 and 48 h. Control cells were treated with equivalent amounts of DMSO in every experiment.
(§6) To determine cytotoxicity, a sulforhodamine B colorimetric assay was performed: 5 × 10^3 cells were plated on 96-well plates, grown for 24 h and treated with different concentrations of each compound for 24 and 48 h. Cells were then fixed with 50% trichloroacetic acid for 1 h at 4 °C and stained for 30 min (min) at room temperature (RT) with 0.4% sulforhodamine B in 1% acetic acid. Excess dye was removed by washing four times with 1% acetic acid. Protein-bound dye was dissolved in 10 mM Tris pH 10 and optical density was determined at 510 nm using a microplate reader.

[2] = test system: pharynx squamous carcinoma FaDu; assay: In vitro proliferation assay (sulforhodamine B), FaDu; format: cell-based; conditions: Homo sapiens, ± SD
Procedure: as §2, §3, §4, §5, §6

colon carcinoma HT-29 = assay: In vitro proliferation assay (sulforhodamine B), HT-29; format: cell-based; conditions: Homo sapiens, ± SD
Procedure: as §2, §3, §4, §5, §6

[3] = test system: tongue squamous carcinoma SCC-15; assay: In vitro proliferation assay (sulforhodamine B), SCC-15; format: cell-based; conditions: Homo sapiens, ± SD
Procedure: as §2, §3, §4, §5, §6

[4] = test system: triple negative breast cancer MDA-MB231; assay: In vitro proliferation assay (sulforhodamine B), MDA-MB231; format: cell-based; conditions: Homo sapiens, MDA-MB-231, ± SD
Procedure: as §2, §3, §4, §5, §6

HaCaT = assay: In vitro proliferation assay (sulforhodamine B), HaCaT non-transformed keratinocytes; format: cell-based, human; conditions: 24 and 48 h, no effect except at a very high concentration, above 100 µM
Procedure: as §2
The following human tumor cell lines were utilized in the present study: triple-negative breast cancer MDA-MB231, colon carcinoma HT-29, tongue squamous cell carcinoma SCC-15 and pharynx squamous cell carcinoma FaDu. […]
To determine cytotoxicity, a sulforhodamine B colorimetric assay was performed: 5 × 10^3 cells were plated on 96-well plates, grown for 24 h and treated with different concentrations of each compound for 24 and 48 h. […] Protein-bound dye was dissolved in 10 mM Tris pH 10 and optical density was determined at 510 nm using a microplate reader.

| SMILES | Ki CA I (hCA I) | Ki (hCA I) | Ki (hCA II) | Ki (hCA XII) | Ki (hCA IX) | Antiproliferative activity (in words) ([1]; four tumor cell lines, 5-100 µM, 24 and 48 h) | EC50 ([2]; 24 h treatment) | EC50 ([2]; 48 h treatment) | EC50 (colon carcinoma HT-29; 24 h treatment) | EC50 (colon carcinoma HT-29; 48 h treatment) | Increase in activity against CA XII relative to diketobutanoic analogue 3a (hCA XII; ratio of Ki values, 5 vs 3a) | EC50 ([3]; 24 h treatment) | EC50 ([3]; 48 h treatment) | Selectivity for CA IX and XII over hCAs I and II (hCA IX; from Ki values) | Increase in activity against CA IX relative to diketobutanoic analogue 3a (hCA IX; ratio of Ki values, 5 vs 3a) | EC50 ([4]; 24 h treatment) | EC50 ([4]; 48 h treatment) | Lowest concentration determining a significant decrease in alive cells [1] | Effect on proliferation of HaCaT cells (HaCaT) |
| --- | --- | --- | --- | --- | --- | --- | --- | --- | --- | --- | --- | --- | --- | --- | --- | --- | --- | --- | --- |
| O=C(O)/C(O)=C/C(=O)c1cn(Cc2ccc(F)cc2)cc1-c1ccccc1 [Compound 3a] | inactive | > 100 µM | 77.6 ± 4.5 µM | 0.3 µM and 0.33 µM | 1.4 ± 0.1 µM |  |  |  |  |  |  |  |  |  |  |  |  |  |  |
| O=C(O)/C(O)=C/C(=O)c1ccn(Cc2ccc(F)cc2)c1 [Compound 3b] |  | 50.9 ± 4.1 µM | 54.7 ± 2.9 µM | 7.9 ± 0.6 µM | 18.4 ± 1.2 µM |  |  |  |  |  |  |  |  |  |  |  |  |  |  |
| CCOC(=O)/C(O)=C/C(=O)c1cn(Cc2ccc(F)cc2)cc1-c1ccccc1 [Compound 4a] |  | > 100 µM | > 100 µM | 89.2 ± 5.2 µM | 57.3 ± 2.8 µM |  |  |  |  |  |  |  |  |  |  |  |  |  |  |
| CCOC(=O)/C(O)=C/C(=O)c1ccn(Cc2ccc(F)cc2)c1 [Compound 4b] |  | > 100 µM | > 100 µM | 71.5 ± 4.3 µM | > 100 µM |  |  |  |  |  |  |  |  |  |  |  |  |  |  |
| O=C(/C=C(\O)C(=O)O)/C=C/c1cn(Cc2ccc(F)cc2)cc1-c1ccccc1 [Compound 5] | inactive | > 100 µM | 62.5 ± 3.6 µM | 0.2 µM and 0.24 µM | 0.3 µM and 0.32 µM | significant antiproliferative activity | 103 ± 11.4 µM | 23 ± 2.8 µM | 98 ± 11 µM | 21 ± 1.6 µM | about 1.5 times | 102 ± 9.7 µM | 58 ± 6.2 µM | two orders of magnitude selective | more than 4 times | 120 ± 15.7 µM | 105 ± 13.2 µM |  |  |
| CCOC(=O)/C(O)=C/C(=O)/C=C/c1cn(Cc2ccc(F)cc2)cc1-c1ccccc1 [Compound 6] |  | > 100 µM | > 100 µM | 89 ± 6.1 µM | 43.1 ± 2.5 µM |  |  |  |  |  |  |  |  |  |  |  |  |  |  |
| COc1ccc(Cn2cc(/C=C/C(=O)/C=C(\O)C(=O)O)c3ccccc32)cc1 [Compound 7] |  | 91.7 ± 7.5 µM | 36.5 ± 1.9 µM | 0.8 µM and 0.83 µM | 1.1 ± 0.1 µM |  | 51 ± 4.7 µM | 22 ± 1.2 µM | 47 ± 5 µM | 30 ± 2.8 µM |  | 48 ± 3.9 µM | 17 ± 0.8 µM |  |  | 21 ± 1.8 µM | 12 ± 1.1 µM | 10 µM | no significant effect |
| CCOC(=O)/C(O)=C/C(=O)/C=C/c1cn(Cc2ccc(OC)cc2)c2ccccc12 [Compound 8] |  | > 100 µM | > 100 µM | 92 ± 6 µM | 80.1 ± 5.3 µM |  | 41 ± 3.3 µM | 18 ± 0.7 µM | 75 ± 8.8 µM | 44 ± 2.3 µM |  | 44 ± 4.1 µM | 21 ± 1.9 µM |  |  | 23 ± 1.6 µM | 17 ± 0.9 µM | 10 µM | no significant effect |
